What was measured:
Assay in all cases: relative viability (nuclei count vs DMSO), 5 days (fraction); higher = more cells survive
Salubrinal + Phenformin = compound: O=C(/C=C/c1ccccc1)NC(NC(=S)Nc1cccc2cccnc12)C(Cl)(Cl)Cl [Salubrinal] + N=C(N)NC(=N)NCCc1ccccc1 [Phenformin] (partner 250 µM)
Summary of the method: (§1)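 The day after seeding in 1536-well plates, lung cancer cell lines were treated by pin tool with a single drug, or with a fixed anchor-drug dose together with five library-drug doses (not always all listed) in √10 steps. After 5 days, a combined fix-and-stain solution (final 0.05% Triton X-100, 1% formaldehyde, 1 ug/ml Hoechst) was added. Nuclei counted on 4× images gave relative viability as treated counts over vehicle counts, reported as the median of duplicate plates.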

Salubrinal = compound: O=C(/C=C/c1ccccc1)NC(NC(=S)Nc1cccc2cccnc12)C(Cl)(Cl)Cl [Salubrinal]
Summary of the method: (§2)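 Hoechst staining, done together with fixation and permeabilisation, marked nuclei for 4× imaging and MetaXpress counting. This followed 5 days without medium change after lung cancer cell lines, kept overnight at 37 °C in 1536-well plates, were pinned with five library-drug doses (not always all listed) spaced by √10 on vehicle-anchored plates. Viability is the ratio of treated-well to vehicle-well nuclei, expressed as a median across plates. Plates passed only at control CV below 25% with at least one doubling.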

[1] = compound: Cc1ccc2nc(NCCN)c3ncc(C)n3c2c1
Summary of the method: as §2

[2] = compound: Cc1ccc2nc(NCCN)c3ncc(C)n3c2c1 + CC1(C)CCC(c2ccc(Cl)cc2)=C(CN2CCN(c3ccc(C(=O)NS(=O)(=O)c4ccc(N[C@H](CCN5CCOCC5)CSc5ccccc5)c(S(=O)(=O)C(F)(F)F)c4)cc3)CC2)C1 [Navitoclax] (partner 0.5 µM)
Summary of the method: as §1

Cell Line	relative viability (Salubrinal + Phenformin; first compound 0.08 µM)	relative viability (Salubrinal + Phenformin; first compound 0.253 µM)	relative viability (Salubrinal + Phenformin; first compound 0.8 µM)	relative viability (Salubrinal + Phenformin; first compound 2.53 µM)	relative viability (Salubrinal + Phenformin; first compound 8 µM)	relative viability (Salubrinal; 0.08 µM)	relative viability (Salubrinal; 0.253 µM)	relative viability (Salubrinal; 0.8 µM)	relative viability (Salubrinal; 2.53 µM)	relative viability (Salubrinal; 8 µM)	relative viability ([1]; 0.04 µM)	relative viability ([1]; 0.1265 µM)	relative viability ([1]; 0.4 µM)	relative viability ([1]; 1.265 µM)	relative viability ([1]; 4 µM)	relative viability ([2]; first compound 0.04 µM)	relative viability ([2]; first compound 0.1265 µM)	relative viability ([2]; first compound 0.4 µM)	relative viability ([2]; first compound 1.265 µM)	relative viability ([2]; first compound 4 µM)
NCI-H522	0.723	0.662	0.714	0.615	0.605	0.947	0.819	1.1	1.02	0.921	0.882	1.04	0.909	1.03	1.02	–	–	–	–	–
HCC-15	0.524	0.431	0.533	0.487	0.391	1.13	0.93	1.14	1.08	0.963	1	1.09	0.907	0.916	0.86	0.702	0.732	0.684	0.677	0.675
A-427	0.326	0.336	0.382	0.292	0.28	1.06	0.973	1.12	0.965	1.08	1.01	1.01	0.968	1.05	0.95	0.914	0.864	0.946	1.02	0.968
NCI-H2228	0.319	0.265	0.441	0.315	0.247	1.23	0.757	1.21	1.04	0.968	1.15	0.992	1.03	0.915	0.838	0.794	0.843	0.702	0.732	0.674
NCI-H1734	0.416	0.375	0.412	0.429	0.366	1.02	0.882	1.14	1.01	0.909	0.979	0.99	0.886	0.9	0.979	0.818	0.803	0.8	0.808	0.803
PC-14	0.696	0.551	0.576	0.677	0.687	1.11	0.96	1.13	1	0.862	1.04	0.963	0.927	0.917	0.671	0.985	1.02	0.993	0.908	0.856
NCI-H1915	0.39	0.341	0.389	0.355	0.365	0.973	0.856	1.12	1.01	0.973	0.958	0.998	0.705	0.93	0.954	0.793	–	0.781	0.774	0.766
NCI-H1666	0.535	0.603	0.561	0.547	0.514	0.953	0.99	0.987	0.888	1.2	1.08	0.951	0.962	0.993	0.993	0.886	0.922	0.96	0.89	0.776
HCC-366	0.685	0.579	0.645	0.642	0.646	1.09	0.915	1.04	1.01	1.04	1.03	1.04	1.05	0.98	0.992	1.26	1.07	1.03	0.997	1.02
NCI-H2170	0.468	0.423	0.241	0.403	0.373	1.21	0.984	1.04	0.996	0.935	0.961	0.976	0.995	0.887	0.978	0.687	0.659	0.59	0.601	0.598
SW 1573	0.388	0.327	0.389	0.332	0.299	1.07	1.05	1.03	0.998	0.994	0.989	1.02	1	1.05	0.776	1.07	0.938	1.16	1.1	0.689
NCI-H661	0.278	0.283	0.28	0.288	0.275	1.09	0.928	0.992	0.937	0.998	1	1.03	0.996	0.985	0.969	–	–	–	–	–
PC-3 [JPC-3]	0.471	0.448	0.529	0.475	0.467	1.05	0.915	1.16	1.04	0.969	1.01	1.05	1	1.09	0.998	0.826	0.767	0.848	0.786	0.827
NCI-H2342	0.497	0.564	0.618	0.635	0.572	1.04	0.88	1.07	1.03	0.858	1.19	1.08	0.989	1.08	0.841	–	–	–	–	–
